Source: paper PMC12040169 (PLOS Biology, 2025)

Test: in vitro
Settings: human, hela cells, % viability

Cc1nc2c(OCC(=O)C(C)(C)C)cccn2c1N(C)C(=O)C1CCCCC1 [CBK147145]
viability at 28.5 h, 10 µM: 92.4%

O=C(c1ccccc1)N1C[C@H](c2ccc(F)cc2)[C@H]2CN(Cc3ccccc3F)CC[C@H]21 [CBK286289]
viability at 28.5 h, 10 µM: 90.1%

C#CCNS(=O)(=O)c1cccc(C(=O)NCC2CCCN(C(C)C)C2)c1 (stereo not drawn) [CBK305981]
viability at 28.5 h, 10 µM: 109%

CC(C)[C@@H](CO)Nc1nccnc1-c1ccoc1 [CBK036648]
viability at 28.5 h, 10 µM: 86.6%

COc1ccc(Nc2ncnc3c2c(C)c(C)n3CCO)cc1 [CBK288161]
viability at 28.5 h, 10 µM: 102%

CCOC(=O)Cn1nc(CC)n2c(cc3ccsc32)c1=O [CBK284133]
viability at 28.5 h, 10 µM: 83.9%

CN(C)Cc1c(O)ccc2occ(C(O)c3ccccc3)c12 (stereo not drawn) [CBK261313]
viability at 28.5 h, 10 µM: 104%

COc1ccc(NC(=O)c2ccc(-c3nnn[nH]3)cc2)cc1Cl [CBK295139]
viability at 28.5 h, 10 µM: 114%

Cc1ccccc1NC(=O)NCc1ccccc1F [CBK105832]
viability at 28.5 h, 10 µM: 97.4%

C/C(=N\N=C1/NC(=O)C(CC(=O)O)S1)c1ccc(CC(C)C)cc1 (stereo not drawn) [CBK006661]
viability at 28.5 h, 10 µM: 93.5%

O=C(CNC(=O)c1ccc2c(c1)OCCO2)N/N=C/c1cccs1 [CBK261987]
viability at 28.5 h, 10 µM: 86.5%

Cn1c(=O)n(C)c2cc(CNC(=O)COCC3CCCCO3)ccc21 (stereo not drawn) [CBK307061]
viability at 28.5 h, 10 µM: 109%

O=[N+]([O-])c1ccc(/C=N/Nc2nnc3c(n2)[nH]c2ccccc23)cc1 [CBK261486]
viability at 28.5 h, 10 µM: 97.8%

O=c1ccnc(SCc2cccc(Cl)c2)[nH]1 [CBK288123]
viability at 28.5 h, 10 µM: 100%

C=CCN(c1ccc(C(=O)O)cc1)S(=O)(=O)c1ccc(/C=C/C(=O)O)cc1 [CBK263364]
viability at 28.5 h, 10 µM: 95.8%

Cc1cc(C)n2nc(NC(=O)C(C)Oc3ccccc3)nc2n1 (stereo not drawn) [CBK270039]
viability at 28.5 h, 10 µM: 89.9%

COc1ccc([C@@]23CC[C@@H](NC(=O)Nc4cccc(-c5cnco5)c4)C[C@@H]2N(C)CC3)cc1OC [CBK059338T]
viability at 28.5 h, 10 µM: 92.3%

CS(=O)(=O)N1CC2(CCN(C(=O)[C@@H]3CNC[C@H]3c3ccccc3)CC2)c2ccccc21 [CBK022572]
viability at 28.5 h, 10 µM: 104%

Cn1c(=O)oc2ccc(C(=O)CSc3nnnn3-c3ccccc3)cc21 [CBK300488]
viability at 28.5 h, 10 µM: 90.1%

CCOC(=O)N1CCC(NS(=O)(=O)/C=C/c2ccccc2)CC1 [CBK045458]
viability at 28.5 h, 10 µM: 107%

Cn1/c(=N\C(=O)c2cccs2)sc2cc(Br)ccc21 [CBK018873]
viability at 28.5 h, 10 µM: 102%

COc1cccc(CN2CCN(C(=O)Cc3cccs3)[C@@H](C)C2)c1 [CBK285487]
viability at 28.5 h, 10 µM: 104%

CCCn1ncnc1C(C)NC(=O)Nc1ccnn1CC(C)C (stereo not drawn) [CBK307545]
viability at 28.5 h, 10 µM: 116%

O=C(c1ccc(F)cc1)N1C[C@@H]2C[C@H](C1)c1ccc(-c3cncnc3)c(=O)n1C2 [CBK289185]
viability at 28.5 h, 10 µM: 92.9%

Cc1ncsc1C(=O)N1CCCC(n2cnc3cc(F)ccc32)C1 (stereo not drawn) [CBK284470]
viability at 28.5 h, 10 µM: 91.2%

CCOC(=O)N(C)c1c(CC)nc2c(OCC(=O)C(C)(C)C)cccn12 [CBK147382]
viability at 28.5 h, 10 µM: 94.2%

CC(C)N(CCOc1nccnc1-c1cnn(C)c1)C(C)C [CBK107084]
viability at 28.5 h, 10 µM: 103%

CCn1cc(Cl)c(C(=O)Nc2ccsc2C(=O)OC)n1 [CBK058439]
viability at 28.5 h, 10 µM: 90.9%

CN(Cc1ccccc1)C(=O)[C@H]1C[C@@H](O)[C@H](O)[C@@H]2N=C(Nc3ccc(Cl)cc3)S[C@@H]21 [CBK288949]
viability at 28.5 h, 10 µM: 105%

CC(=O)N1CCc2cc(NC(=O)C3CC4C=CC3C43CC3)ccc21 (stereo not drawn) [CBK281472]
viability at 28.5 h, 10 µM: 79.8%

COc1cc(/C=C2\SC(=N)NC2=O)ccc1OCC(=O)O [CBK262675]
viability at 28.5 h, 10 µM: 88.4%

CC12CN3CC(C)(CN(C1)C3c1cc(Br)ccc1O)C2O (stereo not drawn) [CBK262664]
viability at 28.5 h, 10 µM: 112%

CC(=O)Nc1ccc(CCOc2nccnc2/C=C/c2ccccc2)cc1 [CBK106880]
viability at 28.5 h, 10 µM: 94.1%

NCCn1cc(C(=O)N2Cc3cnn(Cc4ccc(F)cc4)c3C2)nn1 [CBK307461]
viability at 28.5 h, 10 µM: 107%

c1ccc2oc(-c3cncc(NCCCN4CCOCC4)n3)cc2c1 [CBK066045]
viability at 28.5 h, 10 µM: 92.9%

O=[N+]([O-])c1ccc2c(c1)C(N1CCOCC1)/C(=C/C1(O)CCCCC1)O2 (stereo not drawn) [CBK263200]
viability at 28.5 h, 10 µM: 103%

Cc1nc2ccccn2c1CN1CCC(Oc2ccc(F)cc2)CC1 [CBK281803]
viability at 28.5 h, 10 µM: 90.1%

C(=N\c1nc2ccccc2n1CCN1CCOCC1)/c1ccc2c(c1)OCO2 [CBK262270]
viability at 28.5 h, 10 µM: 109%

CC1CCN(c2ccc(S(=O)(=O)Nc3cc(C(=O)O)cc(C(=O)O)c3)cc2[N+](=O)[O-])CC1 [CBK263886]
viability at 28.5 h, 10 µM: 94.8%

CN1CCN(c2ccc(-c3cncc(N4CCN(c5ccncc5)CC4)n3)cn2)CC1 [CBK065144]
viability at 28.5 h, 10 µM: 92.9%

O=C(COc1ccc(Cl)cc1Cl)Nc1cccc(NC(=O)c2ccccc2Cl)c1 [CBK264726]
viability at 28.5 h, 10 µM: 105%

O=C1N(CN2CCN(C(c3ccccc3)c3ccccc3)CC2)c2ccccc2C12OCCCO2 [CBK265538]
viability at 28.5 h, 10 µM: 85.6%

CC(=O)N1c2ccc(-c3cn4ccc(C)cc4n3)cc2CC1C (stereo not drawn) [CBK285191]
viability at 28.5 h, 10 µM: 79.2%

COc1ccccc1-c1nnc2sc(-c3cnccn3)nn12 [CBK268428]
viability at 28.5 h, 10 µM: 100%

CCNC(=O)NC[C@H]1C[C@@H]2CCN1C[C@@H]2c1cc(-c2ccccc2)nc(C)n1 [CBK289125]
viability at 28.5 h, 10 µM: 116%

O=[N+]([O-])c1ccccc1S(=O)(=O)N1CCN(Cc2cccnc2)CC1 [CBK264168G]
viability at 28.5 h, 10 µM: 68.3%

O=C(Cn1ncc2ccccc2c1=O)NNC(=S)NC1CC2CCC1C2 (stereo not drawn) [CBK267892]
viability at 28.5 h, 10 µM: 106%

Cc1ccc(-c2cncc(N(C)CCN(C)C)n2)cc1C [CBK065990]
viability at 28.5 h, 10 µM: 112%

O=C(NCCN1CCOCC1)c1cc(-c2ccc(Cl)cc2Cl)nc2ccccc12 [CBK265379]
viability at 28.5 h, 10 µM: 113%

Cc1nnc(SCc2nnc(-c3ccccc3)o2)n1Cc1ccccc1 [CBK269743]
viability at 28.5 h, 10 µM: 92.2%

CS(=O)(=O)c1ccc(-c2cccc(COC3CCN(C(=O)Cc4cccc5ccccc45)CC3)c2)cc1 [CBK149510]
viability at 28.5 h, 10 µM: 90.6%

Fc1cccc(Cl)c1CN1CNC(=S)NC1 [CBK006480]
viability at 28.5 h, 10 µM: 88.7%

O=C(NCc1ccccc1)c1ccc2nc[nH]c2c1 [CBK143739]
viability at 28.5 h, 10 µM: 91.9%

CC(C)(C)C1=CC2=NC3(CCC3)[C@@H]3C[C@@H](O)[C@@H](O)[C@@H]3N2O1 [CBK303243]
viability at 28.5 h, 10 µM: 104%

CCNC(=O)Nc1cc2cccnc2nc1-c1ccc(S(C)(=O)=O)cc1 [CBK070706]
viability at 28.5 h, 10 µM: 93.3%

CN(C)c1cccc(-c2cncc(NCCCO)n2)c1 [CBK065619]
viability at 28.5 h, 10 µM: 102%

O=C1OC(c2ccco2)=N/C1=C/Nc1ccc(C(=O)O)cc1 [CBK265195]
viability at 28.5 h, 10 µM: 104%

Cc1c(Cl)cccc1N1CCN(S(=O)(=O)CC23CCC(CC2=O)C3(C)C)CC1 (stereo not drawn) [CBK269257]
viability at 28.5 h, 10 µM: 96.1%

CN(CCNC(=O)Nc1ccc2c(c1)oc(=O)n2C)C1CCCC1 [CBK305503]
viability at 28.5 h, 10 µM: 95.1%

Cc1ccc(Cc2cnc(NC(=O)CN3CCCCC3)s2)cc1Cl [CBK307299]
viability at 28.5 h, 10 µM: 84.9%

CCCn1nc(C)c(-c2cncn2CCN(C)C2CCCC2)c1C [CBK281790]
viability at 28.5 h, 10 µM: 91.3%

O=C(NCCCCNC(=O)c1scc(-c2ccccc2)c1C(=O)O)c1scc(-c2ccccc2)c1C(=O)O [CBK296086]
viability at 28.5 h, 10 µM: 107%

CC(=O)NC1CCN(c2nc(N(C)C)nc3c2CCN(C(C)=O)C3)CC1 [CBK307079]
viability at 28.5 h, 10 µM: 85.6%

Cn1c(=O)n(CC(=O)O)c(=O)c2c1nc(Br)n2Cc1ccccc1 [CBK026617]
viability at 28.5 h, 10 µM: 94.8%

O=C(CN1C2CCC1CC(O)(c1ccco1)C2)NCc1ccccc1 (stereo not drawn) [CBK284105]
viability at 28.5 h, 10 µM: 94.5%

c1ccc(COc2ccccc2CNCCN2CCOCC2)cc1 [CBK278212C]
viability at 28.5 h, 10 µM: 90.7%

O=S(=O)(CCN1CCC2(CC1)CN(CCO)c1ccccc12)c1ccccc1 [CBK126758]
viability at 28.5 h, 10 µM: 102%

COc1ccc(CCNC(=O)c2cc(-c3ccc(C)o3)nc3ccccc23)cc1OC [CBK265486]
viability at 28.5 h, 10 µM: 117%

Oc1cc2cccnc2nc1-c1cccc(C(F)(F)F)c1 [CBK073704]
viability at 28.5 h, 10 µM: 79%

COc1ccccc1-c1noc(CCCC(=O)Nc2cccc(C(F)(F)F)c2)n1 [CBK268794]
viability at 28.5 h, 10 µM: 96.3%

O=C(O)CC1S\C(=N/N=C\C=C/c2ccccc2)N(c2ccc(O)cc2)C1=O (stereo not drawn) [CBK263688]
viability at 28.5 h, 10 µM: 93%

COc1ccc(CNc2cc(/C=C/c3ccccc3)nc3ccnn23)cc1 [CBK037075]
viability at 28.5 h, 10 µM: 103%

Cc1cc(C)n(C(=O)c2cn3cc(Cl)ccc3n2)n1 [CBK288185]
viability at 28.5 h, 10 µM: 98.6%

C[C@@H](c1ccccc1)n1c(=O)[nH]c2ncc(-c3ccc(C(=O)NC4CCCC4)cc3)nc21 [CBK064542]
viability at 28.5 h, 10 µM: 91.2%

c1ccc(Nc2[nH]nnc2-c2ccccc2)cc1 [CBK261015]
viability at 28.5 h, 10 µM: 116%

CC1Cc2cc(C(O)CN3CCCCC3)ccc2N1C(=O)C1CC1 (stereo not drawn) [CBK283144]
viability at 28.5 h, 10 µM: 97.4%

COc1ccc(C2(CN3CCC(NC(=O)C(C)C)CC3)CC2)cc1 [CBK285374]
viability at 28.5 h, 10 µM: 104%

O=C(Cc1cccc(F)c1)N1CCC(c2cc3ncccc3[nH]2)CC1 [CBK283374]
viability at 28.5 h, 10 µM: 100%

c1ccc(OCCN2CCCN(c3nccc(OCC4COc5ccccc5O4)n3)CC2)cc1 (stereo not drawn) [CBK083980]
viability at 28.5 h, 10 µM: 94%

CCc1onc(C)c1C(=O)N1CCN(C2CCNC2)CC1 (stereo not drawn) [CBK304258]
viability at 28.5 h, 10 µM: 96%

O=C(O)/C=C/c1cccc(-c2cncc(NCCc3ccncc3)n2)c1 [CBK065358]
viability at 28.5 h, 10 µM: 99.5%

COc1ccc(CN2CCCN(S(=O)(=O)c3ccc(C(=O)c4ccccc4)cc3)CC2)cc1F [CBK062855]
viability at 28.5 h, 10 µM: 97.7%

O=C1CCC(=O)N1Cc1cccc(-c2ccnc(NS(=O)(=O)c3ccc(Cl)cc3)n2)c1 [CBK067436]
viability at 28.5 h, 10 µM: 86.3%

CCCC(=O)Nc1ccc(-c2csc(NC(=O)C3CCCO3)n2)cc1 (stereo not drawn) [CBK305854]
viability at 28.5 h, 10 µM: 77.8%

CCCC/C=C/c1nccnc1NCC1CC1 [CBK037268]
viability at 28.5 h, 10 µM: 100%

O=C1/C(=C/c2c(NCCc3ccccc3)nc3ccccn3c2=O)SC(=S)N1Cc1ccco1 [CBK264674]
viability at 28.5 h, 10 µM: 96.4%

OCc1ccc(-c2cncc(-c3ccc(O)cc3)n2)cc1 [CBK123792]
viability at 28.5 h, 10 µM: 91.4%
